Measurements reported in PubChem BioAssay (NCI).
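48-hour exposure; five concentrations; linearly interpolated endpoints. GI50 marks 50% less growth. TGI marks complete inhibition of growth.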

Columns and labels:
Assay in all cases: NCI tumour cell line growth inhibition, 48 h
A498 renal = test system: A498 renal
CAKI-1 renal = test system: CAKI-1 renal
DU-145 prostate = test system: DU-145 prostate
EKVX NSCLC = test system: EKVX NSCLC
HS 578T breast = test system: HS 578T breast
MALME-3M melanoma = test system: MALME-3M melanoma
MCF7 breast = test system: MCF7 breast
NCI-H522 lung = test system: NCI-H522 lung
SF-539 CNS = test system: SF-539 CNS
TK-10 renal = test system: TK-10 renal

Compound	TGI (A498 renal) [µM]	TGI (CAKI-1 renal) [µM]	TGI (DU-145 prostate) [µM]	TGI (EKVX NSCLC) [µM]	TGI (HS 578T breast) [µM]	TGI (MALME-3M melanoma) [µM]	TGI (MCF7 breast) [µM]	TGI (NCI-H522 lung) [µM]	TGI (SF-539 CNS) [µM]	TGI (TK-10 renal) [µM]	GI50 (A498 renal) [µM]	GI50 (CAKI-1 renal) [µM]	GI50 (DU-145 prostate) [µM]	GI50 (EKVX NSCLC) [µM]	GI50 (HS 578T breast) [µM]	GI50 (MCF7 breast) [µM]	GI50 (NCI-H522 lung) [µM]	GI50 (SF-539 CNS) [µM]	GI50 (TK-10 renal) [µM]
CCOc1ccc2c(c1)NC(=O)C(C1OC(c3ccccc3)=CC1=O)S2 (stereo not drawn)	> 100	> 100	> 100	62.3	86	44.5	30.4	25.7	45	> 100	–	–	–	–	–	–	–	–	–
C[n+]1c(-c2ccc(/C=N\NC(=O)c3ccc(C(=O)N/N=C/c4ccc(-c5cn6ccsc6[n+]5C)cc4)cc3)cc2)cn2ccsc21	33	41	35	34.3	54.7	47.7	47.9	60.6	56.1	40.3	–	–	–	–	–	–	–	–	–
CCOc1cc(NC(C)=O)ccc1C(=O)NN1C(=O)CSC1c1ccc(O)c(OC)c1 (stereo not drawn)	> 100	> 100	> 100	> 100	> 100	> 100	> 100	> 100	> 100	39.3	–	–	–	–	–	–	–	–	–
O=C(CCO)OCCCCCC/C=C\CCCCCC/C=C\CCCCCCCCOC(=O)CCO	50	39.3	30	32.3	–	34.7	40.3	30.1	> 100	31.5	–	–	–	–	–	–	–	–	–
OC1(c2ccc3ccccc3c2)c2ccc3ccccc3c2C2=NCCN21 (stereo not drawn)	> 100	> 100	> 100	> 100	53	> 100	> 100	–	> 100	> 100	–	–	–	–	–	–	–	–	–
Cc1ccc(S(=O)(=O)NCCSS(=O)(=O)c2ccc(C)cc2)cc1	67.2	–	> 100	–	> 100	–	41	38.5	–	> 100	–	–	–	–	–	–	–	–	–
CCCc1ccc(OCC(=O)N/N=C/c2c(-c3ccccc3)[nH]c3ccccc23)cc1	31.8	> 100	> 100	92.8	> 100	> 100	54.3	82	42.5	63.8	–	–	–	–	–	–	–	–	–
CS(=O)(=O)OCc1c(O)c2c(c(O)c1COS(C)(=O)=O)C(=O)C=CC2=O	> 100	> 100	–	> 100	–	> 100	–	> 100	> 100	> 100	–	–	–	–	–	–	–	–	–
CCCC(=O)OCC(O)CO (stereo not drawn)	–	> 5000	–	–	–	> 5000	–	> 5000	> 5000	> 5000	–	–	–	–	–	–	–	–	–
NC(N)=N/N=C/c1ccc(O)c(C(=O)O)c1	> 100	> 100	> 100	–	> 100	> 100	> 100	> 100	> 100	> 100	–	–	–	–	–	–	–	–	–
Oc1ccc2ccccc2c1Cc1c(O)ccc2ccccc12	39.4	33.9	38.1	32.6	34.4	28.9	53.9	26	42.2	48.9	–	–	–	–	–	–	–	–	–
NC1=NS(=O)(=O)Nc2nc(-c3cccs3)[nH]c21	> 100	> 100	–	–	–	> 100	–	> 100	> 100	> 100	–	–	–	–	–	–	–	–	–
COc1ccc(-n2cc(-c3ccc(OC)c(OC)c3)nc2SCc2ccccc2)cc1Cl	> 100	> 100	> 100	64.7	> 100	–	> 100	98.4	79.5	> 100	22.3	41.7	27.6	13.8	25.3	24	13.2	24.5	29.5
C[C@]12CC[C@H](O)CC1=CC[C@@H]1[C@@H]2CC[C@]2(C)C(=O)CC[C@@H]12	–	> 100	> 100	> 100	97.9	> 100	> 100	> 100	> 100	> 100	–	–	–	–	–	–	–	–	–
C=CCC1=CC2(OC)C(=O)C(OC)(OC)C1C1C(OC)(OC)C(=O)C(OC)=CC12CC=C (stereo not drawn)	> 100	> 100	> 100	> 100	> 100	> 100	> 100	> 100	> 100	> 100	–	–	–	–	–	–	–	–	–
FC(F)(F)C1=NC(=NNc2nnc(-c3ccccc3)c(-c3ccccc3)n2)N=C(C(F)(F)F)C1	> 100	> 100	–	> 100	–	> 100	> 100	53.6	> 100	–	–	–	–	–	–	–	–	–	–
CCCCOc1ccc(S(=O)(=O)/N=C(\NN)Nc2ccc(Cl)cc2)cc1	> 100	48.1	31.1	> 100	–	86.3	> 100	–	36.7	> 100	–	–	–	–	–	–	–	–	–
ClCC1(CCl)COC1	> 100	–	> 100	–	> 100	–	> 100	> 100	–	> 100	–	–	–	–	–	–	–	–	–
O=c1cc(-c2nc3ccccc3[nH]2)[nH]c2nc(-c3nc4ccccc4[nH]3)cc(-c3ccc(Cl)cc3)c12	–	76	> 100	> 100	> 100	71.2	36.3	26.1	31.8	49	–	–	–	–	–	–	–	–	–
CC[N+](CC)(CC)/C(=N/S(=O)(=O)c1cc(C)c(Cl)cc1S)[N-]S(=O)(=O)c1ccc(Cl)cc1	> 100	> 100	> 100	> 100	> 100	–	> 100	> 100	> 100	> 100	–	–	–	–	–	–	–	–	–
Cc1onc(-c2c(F)cccc2Cl)c1C(=O)N[C@@H]1C(=O)N2[C@@H]1SC(C)(C)[C@@H]2C(=O)O	> 100	> 100	> 100	> 100	> 100	> 100	> 100	> 100	> 100	> 100	–	–	–	–	–	–	–	–	–
Cc1cc(-c2nc3cc(F)ccc3s2)ccc1NC(=O)C(C)N (stereo not drawn)	7.41	8.64	8.17	7.03	10	25	2.7	7.99	14.2	2.93	–	–	–	–	–	–	–	–	–
COc1cc(NCc2ccc3n2-c2ccccc2OC3)cc(OC)c1OC	33.8	74.5	> 100	45.1	> 100	50.9	40.6	40.7	–	> 100	–	–	–	–	–	–	–	–	–
COc1c2ccoc2c(S(=O)(=O)Nc2ccc(Cl)cc2)c2oc(C)cc(=O)c12	> 100	> 95.9	–	> 100	–	> 100	> 100	> 100	> 93.9	–	–	–	–	–	–	–	–	–	–
